Results as given in ChEMBL document CHEMBL2440076, “New triarylpyrazoles as broad-spectrum anticancer agents: design, synthesis, and biological evaluation” (Eur J Med Chem, 2013).

What was measured:
[1] = tested on: OVCAR-4; assay: Growth inhibition of human OVCAR4 cells after 48 hrs by sulforhodamine B assay; assay type: functional; conditions: OVCAR-4, 48 h
[2] = tested on: MDA-MB-468; assay: Growth inhibition of human MDA-MB-468 cells after 48 hrs by sulforhodamine B assay; assay type: functional, cell-based; conditions: MDA-MB-468, 48 h; for CC50: read-out: LC50 (the source's name)
[3] = tested on: CAKI-1; assay: Growth inhibition of human CAKI-1 cells after 48 hrs by sulforhodamine B assay; assay type: functional; conditions: CAKI-1, 48 h; for CC50: read-out: LC50 (the source's name)
[4] = tested on: NCI-H226; assay: Growth inhibition of human NCI-H226 cells assessed as cell growth at 10 uM after 48 hrs by sulforhodamine B assay; assay type: functional; conditions: NCI-H226, 48 h, read-out: Activity
[5] = tested on: RPMI-8226; assay: Growth inhibition of human RPMI8226 cells after 48 hrs by sulforhodamine B assay; assay type: functional, cell-based; conditions: RPMI-8226, 48 h; for CC50: read-out: LC50 (the source's name)
[6] = tested on: SN12C; assay: Growth inhibition of human SN12C cells assessed as cell growth at 10 uM after 48 hrs by sulforhodamine B assay; assay type: functional; conditions: read-out: Activity
[7] = tested on: IGROV-1; assay: Growth inhibition of human IGROV1 cells assessed as cell growth at 10 uM after 48 hrs by sulforhodamine B assay; assay type: functional; conditions: IGROV-1, 48 h, read-out: Activity
[8] = tested on: T47D; assay: Growth inhibition of human T47D cells assessed as cell growth at 10 uM after 48 hrs by sulforhodamine B assay; assay type: functional; conditions: read-out: Activity
[9] = tested on: UO-31; assay: Growth inhibition of human UO31 cells assessed as cell growth at 10 uM after 48 hrs by sulforhodamine B assay; assay type: functional; conditions: UO-31, 48 h, read-out: Activity
[10] = tested on: MOLT-4; assay: Growth inhibition of human MOLT4 cells assessed as cell growth at 10 uM after 48 hrs by sulforhodamine B assay; assay type: functional; conditions: MOLT-4, 48 h, read-out: Activity
[11] = tested on: NCI-H522; assay: Growth inhibition of human NCI-H522 cells after 48 hrs by sulforhodamine B assay; assay type: functional; conditions: NCI-H522, 48 h
[12] = tested on: RPMI-8226; assay: Growth inhibition of human RPMI8226 cells assessed as cell growth at 10 uM after 48 hrs by sulforhodamine B assay; assay type: functional; conditions: RPMI-8226, 48 h, read-out: Activity
[13] = tested on: HL-60(TB); assay: Growth inhibition of human HL-60(TB) cells after 48 hrs by sulforhodamine B assay; assay type: functional; conditions: HL-60, 48 h; for CC50: read-out: LC50 (the source's name)
[14] = tested on: K562; assay: Growth inhibition of human K562 cells assessed as cell growth at 10 uM after 48 hrs by sulforhodamine B assay; assay type: functional; conditions: K562, 48 h, read-out: Activity
[15] = tested on: OVCAR-5; assay: Growth inhibition of human OVCAR5 cells assessed as cell growth at 10 uM after 48 hrs by sulforhodamine B assay; assay type: functional; conditions: OVCAR-5, 48 h, read-out: Activity
[16] = tested on: SK-MEL-5; assay: Growth inhibition of human SK-MEL-5 cells after 48 hrs by sulforhodamine B assay; assay type: functional; conditions: SK-MEL-5, 48 h
[17] = tested on: SF-539; assay: Growth inhibition of human SF539 cells assessed as cell growth at 10 uM after 48 hrs by sulforhodamine B assay; assay type: functional; conditions: SF-539, 48 h, read-out: Activity
[18] = tested on: RXF 393; assay: Growth inhibition of human RXF393 cells assessed as cell growth at 10 uM after 48 hrs by sulforhodamine B assay; assay type: functional; conditions: RXF 393, 48 h, read-out: Activity
[19] = tested on: HOP-92; assay: Growth inhibition of human HOP92 cells after 48 hrs by sulforhodamine B assay; assay type: functional, cell-based; conditions: HOP-92, 48 h
[20] = tested on: 786-0; assay: Growth inhibition of human 786-0 cells after 48 hrs by sulforhodamine B assay; assay type: functional; conditions: 786-0, 48 h; for CC50: read-out: LC50 (the source's name)
[21] = tested on: TK-10; assay: Growth inhibition of human TK10 cells after 48 hrs by sulforhodamine B assay; assay type: functional; conditions: TK-10, 48 h; for CC50: read-out: LC50 (the source's name)
[22] = tested on: OVCAR-8; assay: Growth inhibition of human OVCAR8 cells assessed as cell growth at 10 uM after 48 hrs by sulforhodamine B assay; assay type: functional; conditions: OVCAR-8, 48 h, read-out: Activity
[23] = tested on: SK-OV-3; assay: Growth inhibition of human SKOV3 cells after 48 hrs by sulforhodamine B assay; assay type: functional; conditions: SK-OV-3, 48 h; for CC50: read-out: LC50 (the source's name)
[24] = tested on: OVCAR-8; assay: Growth inhibition of human OVCAR8 cells after 48 hrs by sulforhodamine B assay; assay type: functional; conditions: OVCAR-8, 48 h; for CC50: read-out: LC50 (the source's name)
[25] = tested on: CCRF-CEM; assay: Growth inhibition of human CCRF-CEM cells after 48 hrs by sulforhodamine B assay; assay type: functional
[26] = tested on: SW-620; assay: Growth inhibition of human SW620 cells after 48 hrs by sulforhodamine B assay; assay type: functional; conditions: SW-620, 48 h; for CC50: read-out: LC50 (the source's name)
[27] = tested on: UACC-257; assay: Growth inhibition of human UACC257 cells assessed as cell growth at 10 uM after 48 hrs by sulforhodamine B assay; assay type: functional; conditions: UACC-257, 48 h, read-out: Activity
[28] = tested on: SK-MEL-5; assay: Growth inhibition of human SK-MEL-5 cells assessed as cell growth at 10 uM after 48 hrs by sulforhodamine B assay; assay type: functional; conditions: SK-MEL-5, 48 h, read-out: Activity
[29] = tested on: Malme-3M; assay: Growth inhibition of human MALME-3M cells assessed as cell growth at 10 uM after 48 hrs by sulforhodamine B assay; assay type: functional; conditions: read-out: Activity
[30] = tested on: MDA-MB-468; assay: Growth inhibition of human MDA-MB-468 cells assessed as cell growth at 10 uM after 48 hrs by sulforhodamine B assay; assay type: functional; conditions: MDA-MB-468, 48 h, read-out: Activity
[31] = tested on: NCI-H460; assay: Growth inhibition of human NCI-H460 cells assessed as cell growth at 10 uM after 48 hrs by sulforhodamine B assay; assay type: functional; conditions: NCI-H460, 48 h, read-out: Activity
[32] = tested on: OVCAR-3; assay: Growth inhibition of human OVCAR3 cells after 48 hrs by sulforhodamine B assay; assay type: functional, cell-based; conditions: OVCAR-3, 48 h; for CC50: read-out: LC50 (the source's name)
[33] = tested on: UACC-62; assay: Growth inhibition of human UACC62 cells assessed as cell growth at 10 uM after 48 hrs by sulforhodamine B assay; assay type: functional; conditions: UACC-62, 48 h, read-out: Activity

## COc1cc(-c2nn(-c3cccc(NC(=O)c4ccc(Cl)c(C(F)(F)F)c4)c3)cc2-c2ccncc2)ccc1Cl
[1]
  GI50: 8.04 µM
  LC50 (concentration killing 50% of cells): > 32.5 µM
  TGI: > 32.5 µM
[2]
  GI50: 3.69 µM
  IC50: 3.69 µM
  TGI: > 32.5 µM
  CC50: > 32.5 µM
[3]
  GI50: 2.3 µM
  TGI: > 32.5 µM
  CC50: > 32.5 µM
[4]
  growth at 10 µM: 56.3%
[5]
  GI50: 1.62 µM
  IC50: 1.62 µM
  TGI: > 32.5 µM
  CC50: > 32.5 µM
[6]
  growth at 10 µM: 57.3%
[7]
  growth at 10 µM: 48.9%
[8]
  growth at 10 µM: 26.2%
[9]
  growth at 10 µM: 37.1%
[10]
  growth at 10 µM: 20.3%
[11]
  GI50: 1.04 µM
  LC50 (concentration killing 50% of cells): > 32.5 µM
  TGI: 13.4 µM
[12]
  growth at 10 µM: 25.4%
[13]
  GI50: 5.48 µM
  TGI: > 32.5 µM
  CC50: > 32.5 µM
[14]
  growth at 10 µM: 8.65%
[15]
  growth at 10 µM: 91.3%
[16]
  GI50: 1.38 µM
  LC50 (concentration killing 50% of cells): 31.8 µM
  TGI: 6.87 µM
[17]
  growth at 10 µM: 33%
[18]
  growth at 10 µM: -0.4%
[19]
  GI50: 0.665 µM
  IC50: 0.67 µM
  LC50: > 32.5 µM
  TGI: 3.23 µM
[20]
  GI50: 11 µM
  TGI: > 32.5 µM
  CC50: > 32.5 µM
[21]
  GI50: 20.4 µM
  TGI: > 32.5 µM
  CC50: > 32.5 µM
[22]
  growth at 10 µM: 38.9%
[23]
  GI50: 9.29 µM
  TGI: > 32.5 µM
  CC50: > 32.5 µM
[24]
  GI50: 3.35 µM
  TGI: > 32.5 µM
  CC50: > 32.5 µM
[25]
  GI50: 1.77 µM
  LC50: > 32.5 µM
  TGI: > 32.5 µM
[26]
  GI50: 4.75 µM
  TGI: > 32.5 µM
  CC50: > 32.5 µM
[27]
  growth at 10 µM: 23.5%
[28]
  growth at 10 µM: 17.5%
[29]
  growth at 10 µM: 16.8%
[30]
  growth at 10 µM: 54.4%
[31]
  growth at 10 µM: 25.4%
[32]
  GI50: 2.42 µM
  IC50: 2.42 µM
  TGI: 19.8 µM
  CC50: > 32.5 µM
[33]
  growth at 10 µM: 32.8%

## O=C(Nc1cccc(-n2cc(-c3ccncc3)c(-c3ccc(Cl)c(O)c3)n2)c1)Nc1ccc(Cl)c(Cl)c1
[1]
  GI50: 1.69 µM
  LC50 (concentration killing 50% of cells): > 32.5 µM
  TGI: > 32.5 µM
[2]
  GI50: 0.729 µM
  IC50: 0.73 µM
  TGI: 4.25 µM
  CC50: > 32.5 µM
[3]
  GI50: 1.11 µM
  TGI: 14.3 µM
  CC50: > 32.5 µM
[4]
  growth at 10 µM: 24.7%
[5]
  GI50: 1.03 µM
  IC50: 1.03 µM
  TGI: > 32.5 µM
  CC50: > 32.5 µM
[6]
  growth at 10 µM: 18%
[7]
  growth at 10 µM: 28.7%
[8]
  growth at 10 µM: 23%
[9]
  growth at 10 µM: 21%
[10]
  growth at 10 µM: 7.64%
[11]
  GI50: 1.19 µM
  LC50 (concentration killing 50% of cells): > 32.5 µM
  TGI: 10.6 µM
[12]
  growth at 10 µM: 7.89%
[13]
  GI50: 0.515 µM
  TGI: > 32.5 µM
  CC50: > 32.5 µM
[14]
  growth at 10 µM: 11.4%
[15]
  growth at 10 µM: 56.4%
[16]
  GI50: 0.57 µM
  LC50 (concentration killing 50% of cells): 2.35 µM
  TGI: 1.16 µM
[17]
  growth at 10 µM: 37%
[18]
  growth at 10 µM: 4.46%
[19]
  GI50: 0.679 µM
  IC50: 0.68 µM
  LC50: > 32.5 µM
  TGI: 1.91 µM
[20]
  GI50: 7.22 µM
  TGI: > 32.5 µM
  CC50: > 32.5 µM
[21]
  GI50: 1.91 µM
  TGI: > 32.5 µM
  CC50: > 32.5 µM
[22]
  growth at 10 µM: 11.7%
[23]
  GI50: 1.2 µM
  TGI: > 32.5 µM
  CC50: > 32.5 µM
[24]
  GI50: 1.21 µM
  TGI: > 32.5 µM
  CC50: > 32.5 µM
[25]
  GI50: 1.03 µM
  LC50: > 32.5 µM
  TGI: > 32.5 µM
[26]
  GI50: 1.46 µM
  TGI: > 32.5 µM
  CC50: > 32.5 µM
[27]
  growth at 10 µM: -17.3%
[28]
  growth at 10 µM: -40.2%
[29]
  growth at 10 µM: 10.3%
[30]
  growth at 10 µM: 2.25%
[31]
  growth at 10 µM: 6.5%
[32]
  GI50: 1.05 µM
  IC50: 1.05 µM
  TGI: 3.15 µM
  CC50: > 32.5 µM
[33]
  growth at 10 µM: 14.9%
